In ChEMBL document CHEMBL3046635, “Synthesis and Herbicidal Activity of New Pyrazole-4-carboxamide Derivatives” (J Pestic Sci, 2004):
Active and inactive are the calls of the source.

What was measured:
[1] = system: Lindernia procumbens; experiment: Pre-emergence herbicidal activity against Lindernia procumbens at 2000 g a.i/ha measured after 14 days; assay type: functional, organism-based
[2] = system: Eleocharis acicularis; experiment: Pre-emergence herbicidal activity against Eleocharis acicularis assessed as bleaching of stem/leaf parts; assay type: functional, organism-based
[3] = system: Elatine triandra; experiment: Pre-emergence herbicidal activity against Elatine triandra assessed as bleaching of stem/leaf parts; assay type: functional, organism-based
[4] = system: Pontederia vaginalis; experiment: Pre-emergence herbicidal activity against Monochoria vaginalis assessed as bleaching of stem/leaf parts; assay type: functional, organism-based
[5] = system: Schoenoplectiella juncoides; experiment: Pre-emergence herbicidal activity against Schoenoplectiella juncoides assessed as bleaching of stem/leaf parts; assay type: functional, organism-based
[6] = system: Eleocharis acicularis; experiment: Pre-emergence herbicidal activity against Eleocharis acicularis at 2000 g a.i/ha measured after 14 days; assay type: functional, organism-based
[7] = system: Schoenoplectiella juncoides; experiment: Pre-emergence herbicidal activity against Schoenoplectiella juncoides at 2000 g a.i/ha measured after 14 days; assay type: functional, organism-based
[8] = system: Lindernia procumbens; experiment: Pre-emergence herbicidal activity against Lindernia procumbens assessed as bleaching of stem/leaf parts; assay type: functional, organism-based
[9] = system: Ammannia multiflora; experiment: Pre-emergence herbicidal activity against Ammannia multiflora at 2000 g a.i/ha measured after 14 days; assay type: functional, organism-based
[10] = system: Echinochloa oryzicola; experiment: Pre-emergence herbicidal activity against Echinochloa oryzicola assessed as bleaching of stem/leaf parts; assay type: functional, organism-based
[11] = system: Schoenoplectiella juncoides; experiment: Post-emergence herbicidal activity against Schoenoplectiella juncoides assessed as bleaching of stem/leaf parts; assay type: functional, organism-based; note: test concentration or dose not given here
[12] = system: Pontederia vaginalis; experiment: Post-emergence herbicidal activity against Monochoria vaginalis assessed as bleaching of stem/leaf parts; assay type: functional, organism-based; note: test concentration or dose not given here
[13] = system: Cyperus difformis; experiment: Pre-emergence herbicidal activity against Cyperus difformis assessed as bleaching of stem/leaf parts; assay type: functional, organism-based
[14] = system: Ammannia multiflora; experiment: Pre-emergence herbicidal activity against Ammannia multiflora assessed as bleaching of stem/leaf parts; assay type: functional, organism-based
[15] = system: Rotala indica; experiment: Pre-emergence herbicidal activity against Rotala indica assessed as bleaching of stem/leaf parts; assay type: functional, organism-based
[16] = system: Rotala indica; experiment: Pre-emergence herbicidal activity against Rotala indica at 2000 g a.i/ha measured after 14 days; assay type: functional, organism-based
[17] = system: Pontederia vaginalis; experiment: Pre-emergence herbicidal activity against Monochoria vaginalis at 2000 g a.i/ha measured after 14 days; assay type: functional, organism-based
[18] = system: Elatine triandra; experiment: Post-emergence herbicidal activity against Elatine triandra assessed as bleaching of stem/leaf parts; assay type: functional, organism-based; note: test concentration or dose not given here
[19] = system: Oryza sativa; experiment: Phytotoxicity against Oryza sativa cv. Koshihikari (rice) at 2000 g a.i/ha measured after 14 days; assay type: organism-based; conditions: in vivo, 336 h
[20] = system: Ammannia multiflora; experiment: Post-emergence herbicidal activity against Ammannia multiflora assessed as bleaching of stem/leaf parts; assay type: functional, organism-based; note: test concentration or dose not given here
[21] = system: Rotala indica; experiment: Post-emergence herbicidal activity against Rotala indica assessed as bleaching of stem/leaf parts; assay type: functional, organism-based; note: test concentration or dose not given here
[22] = system: Cyperus difformis; experiment: Pre-emergence herbicidal activity against Cyperus difformis at 2000 g a.i/ha measured after 14 days; assay type: functional, organism-based
[23] = system: Elatine triandra; experiment: Pre-emergence herbicidal activity against Elatine triandra at 2000 g a.i/ha measured after 14 days; assay type: functional, organism-based
[24] = system: Lindernia procumbens; experiment: Post-emergence herbicidal activity against Lindernia procumbens assessed as bleaching of stem/leaf parts; assay type: functional, organism-based; note: test concentration or dose not given here
[25] = system: Eleocharis acicularis; experiment: Post-emergence herbicidal activity against Eleocharis acicularis assessed as bleaching of stem/leaf parts; assay type: functional, organism-based; note: test concentration or dose not given here
[26] = system: Echinochloa oryzicola; experiment: Pre-emergence herbicidal activity against Echinochloa oryzicola at 2000 g a.i/ha measured after 14 days; assay type: functional, organism-based
[27] = system: Cyperus difformis; experiment: Post-emergence herbicidal activity against Cyperus difformis assessed as bleaching of stem/leaf parts; assay type: functional, organism-based; note: test concentration or dose not given here
[28] = system: Echinochloa oryzicola; experiment: Post-emergence herbicidal activity against Echinochloa oryzicola assessed as bleaching of stem/leaf parts; assay type: functional, organism-based; note: test concentration or dose not given here

SMILES	Activity [1]	Activity [2]	Activity [3]	Activity [4]	Activity [5]	Activity [6]	Activity [7]	Activity [8]	Activity [9]	Activity [10]	Activity [11]	Activity [12]	Activity [13]	Activity [14]	Activity [15]	Activity [16]	Activity [17]	Activity [18]	Activity [19]	Activity [20]	also measured
C#CCOc1nn(C)cc1C(=O)N(CC)CCC	inactive	Active	Active	Active	Active	inactive	inactive	Active	inactive	Active	Active	Active	Active	Active	Active	inactive	inactive	Active	Non-toxic	Active	Activity [21]: Active; Activity [22]: inactive; Activity [23]: inactive; Activity [24]: Active; Activity [25]: Active; Activity [26]: inactive; Activity [27]: Active; Activity [28]: Active
CCCN(CC)C(=O)c1cn(C)nc1OC(C)c1cccc(Br)c1 (stereo not drawn)	inactive	Active	Active	Active	Active	inactive	inactive	Active	inactive	Active	Active	Active	Active	Active	Active	inactive	inactive	Active	Non-toxic	Active	Activity [21]: Active; Activity [22]: inactive; Activity [23]: inactive; Activity [24]: Active; Activity [25]: Active; Activity [26]: inactive; Activity [27]: Active; Activity [28]: Active
CCCN(CC)C(=O)c1cn(C)nc1OCc1cccc(Br)c1	inactive	Active	Active	Active	Active	Active	Active	Active	inactive	Active	Active	Active	Active	Active	Active	inactive	Active	Active	Non-toxic	Active	Activity [21]: Active; Activity [22]: inactive; Activity [23]: inactive; Activity [24]: Active; Activity [25]: Active; Activity [26]: Active; Activity [27]: Active; Activity [28]: Active
CCCN(CC)C(=O)c1cn(C)nc1OCc1cccc(Cl)c1	Active	Active	Active	Active	Active	Active	Active	Active	Active	Active	Active	Active	Active	Active	Active	Active	Active	Active	Non-toxic	Active	Activity [21]: Active; Activity [22]: Active; Activity [23]: Active; Activity [24]: Active; Activity [25]: Active; Activity [26]: Active; Activity [27]: Active; Activity [28]: Active
CCCN(CC)C(=O)c1cn(C)nc1OCc1ccccc1	Active	Active	Active	Active	Active	Active	inactive	Active	Active	Active	Active	Active	Active	Active	Active	Active	Active	Active	Non-toxic	Active	Activity [21]: Active; Activity [22]: Active; Activity [23]: Active; Activity [24]: Active; Activity [25]: Active; Activity [26]: Active; Activity [27]: Active; Activity [28]: Active
CCCN(CC)C(=O)c1cn(C)nc1OCc1cccc(F)c1	Active	Active	Active	Active	Active	Active	Active	Active	Active	Active	Active	Active	Active	Active	Active	Active	Active	Active	Non-toxic	Active	Activity [21]: Active; Activity [22]: Active; Activity [23]: Active; Activity [24]: Active; Activity [25]: Active; Activity [26]: Active; Activity [27]: Active; Activity [28]: Active
